# Measured values from patent US7183369B1, “Injectible bodily prosthetics employing methacrylic copolymer gels” (Iowa State University Research Foundation, Inc., priority 2003, dated 2007).
# Tested on: NIH/3T3 mouse fibroblasts
# Experiment: Elution cytotoxicity test
# Format: cell-based
# Method: Elution tests were performed on one sample of the pentablock material to assess the cytotoxic properties of the pentablock copolymers. Approximately 30 mg of the polymers to be tested were dissolved in 100 ml of low-glucose Dulbecco's modified eagle medium (DMEM, Sigma) with 10% fetal bovine serum (FBS, Sigma), 10 μg/ml insulin (Sigma), 10 units/ml penicillin/streptomycin (Sigma), and 100 μg/ml L-ascorbic acid (Sigma). This solution was diluted to achieve the desired polymer concentration for all tests.
# NIH/3T3 mouse fibroblasts were grown in polystyrene flasks until reaching confluence at 150 cells/mm. The growth media was removed from the flasks and replaced with one of the following: DMEM (negative control), DMEM with phenol (positive control), DMEM with the pentablock material. The concentrations of the pentablock material and phenol were 3 mg/L, 0.3 mg/L and 0.03 mg/L.
# After 24 hours of incubation in a humidified incubator with 5% CO2 at 37° C. the samples were removed and the media was replaced with Karnovsky's fixative (2.5% glutaraldehyde, 2.0% paraformaldehyde, 0.1M sodium cacodylate) for 12 hours. The samples were then stained with a 20% crystal violet dye (CVD) solution in ethanol for 6 hours followed by dehydration with ethanol. […]
substance,measurement,value
PDEAEM-b-PEO-b-PPO-b-PEO-b-PDEAEM [pentablock copolymer],cell adhesion to polystyrene substrate and confluence after test period,good adhesion to the polystyrene cell culture substrate and the cells remained confluent
